{"source": "patent US7128926B2", "about": "“Ester compound and use thereof” (Incorporated Administrative Agency, National Agriculture …, priority 2002, dated 2006)", "test_system": "adult males of Pseudococcus cryptus", "assay": "Biological assay of attracting activity using Petri dish (Table 1)", "format": "in vivo", "protocol": "Biological Assay of Attracting Activity Using Petri Dish […] First, two square filter papers with an area of 1 cm^2 were placed on a Petri dish with a diameter of 90 mm. Thereafter, one paper was impregnated with each of sample solutions (shown in Tables 1 and 2) (100 μl of a stock solution in the case of each fraction shown in Table 1 and a crude extract shown in Table 2, and 10 μl of a stock solution in the case of an acetylated product shown in Table 2), and it was defined as a treated group. The other paper was impregnated with only a solvent (100 μl), and it was defined as a control group. […] The Petri dish was then capped. Approximately 10 to 60 minutes later, when the movement of the males stopped, the presence or absence of attracting activity was confirmed from the ratio of males attracted to each filter paper."}
{"smiles": "C=C(C)CC(=O)OCC1CC(C(=C)C)C1(C)C", "note": "(stereo not shown) [formula (I), 3-isopropenyl-2,2-dimethylcyclobutylmethyl 3-methyl-3-butenoate]", "values": [{"measurement": "attracting activity towards adult males of Pseudococcus cryptus (in words)", "value": "activity of attracting adult males of Pseudococcus cryptus"}]}
